Results reported in patent publication US9381176B2, “E-prostanoid receptor, Ptger3, as a novel anti-diabetic therapeutic target” (Wisconsin Alumni Research Foundation, priority 2012, dated 2016).
“Also recorded” adds a separate entry of the source. No end group written: not given here.

Experiments:
[1] = system: human islets from non-diabetic or T2D cadaveric donors; assay: Human islet insulin secretion assay; assay type: cell-based
Experimental: Human Islet Culture and Insulin Secretion Assays. Human islets were obtained through the Integrated Islet Distribution Program. On the day of arrival, islets were cultured overnight in RPMI containing 8 mM glucose, 10% heat-inactivated FBS, and 1X penicillin/streptomycin to confirm viability and sterility. Islets were cultured in 6 cm Petri dishes with approximately 1000 islet equivalents plated per dish. Islets were hand-picked and incubated an additional day in medium containing the desired concentration of glucose and/or xylitol before assaying for insulin secretion. Insulin secretion assays on human islets were performed identically to those described for mouse islets, except that 10 islets were used per replicate instead of 4.
Non-diabetic and T2D human islets were cultured for 48 hours in 8 mM glucose. A subset of the non-diabetic donor islets were also incubated with 0.5 mM xylitol, a glucose analog that is non-metabolizable beyond glucose-6 phosphate, during the final 24 hour culture period. […] Xylitol activates the FoxO1 transcription factor via glucose-6 phosphate formation, providing an alternative mechanism for up-regulating gene expression. Following 48 hours in culture, cellular insulin secretion was stimulated for 45 minutes with 16.7 mM glucose in the absence and presence of 10 μM L-798,106. Secreted insulin was normalized to total insulin content in order to determine the fractional release of insulin. Data from each human islet set was normalized to its own response in 16.7 mM glucose alone to isolate the effect of L-798,106 on GSIS (FIG. 6).

[2] = system: Ins-1 832/3 cells; assay: INS1 cell insulin secretion assay; assay type: cell-based, rat; details: for minimum dose yielding maximum effect on GSIS inhibition: 2 hour stimulation
Experimental: INS1 Cell Culture and Insulin Secretion Assays. The glucose responsive rat beta cell line, INS1 (832/3) was cultured in RPMI 1640 (11.1 mM glucose) supplemented with NaHCO3, HEPES, heat-inactivated FBS, L-glutamine, sodium pyruvate and β-mercaptoethanol. 3 days prior to assay, 1×10^5 cells were plated per well in 96-well cell culture plates. Twenty-four hours prior to the assay, the medium was aspirated and fresh growth medium added. On the day of the assay, confluent Ins-1 832/3 cells were washed once with sterile PBS and pre-incubated for 2 hours in KRBB supplemented with 25 mM HEPES and containing 1.7 mM glucose and 0.2% BSA. Cells were then stimulated for 2 hours with KRBB containing 16.7 mM glucose and the desired concentrations of agonists/antagonists. Secretion buffer was collected and the secreted and cellular insulin content determined by acid/ethanol extraction, as described above.
Insulin secretion assays in Ins-1 832/3 cells were performed wherein the dose of PGE2 (a physiological agonist of EP3) or sulprostone (an EP3-selective agonist) were varied over a wide concentration range. […] The minimum dose of sulprostone yielding maximum effect on GSIS inhibition was approximately 10 nM and the minimum dose of PGE2 was approximately 50 nM.

[3] = system: islets isolated from 10-week-old BTBR lean and Ob mice; assay: Mouse islet glucose-stimulated insulin secretion (GSIS) assay; assay type: cell-based; details: for effect on GSIS from islets obtained from diabetic BTBR mice: diabetic (ob/ob) BTBR islets; for effect on GSIS from islets obtained from diabetic BTBR mice / effect on GSIS from islets obtained from non-diabetic mice: 16.7 mM glucose, PGE1 5 μM or L-798,106 20 μM, 1 hour static incubation; for effect on GSIS from islets obtained from non-diabetic mice: non-diabetic (lean) BTBR islets
Experimental: Mouse Islet Isolation & Culture. Intact pancreatic islets were isolated from 10-12-week-old BTBR lean and ob/ob mice using a known collagenase digestion protocol (Rabaglia et al., Am. J. Physiology Endo. Metab. 289:E218-224 (2005)). Instead of CO2 asphyxiation and decapitation, mice were Avertin-anesthetized and exsanguinated immediately prior to cannulation of the bile duct and inflation of the pancreas with a collagenase solution. Islets were cultured overnight in 5 ml RPMI 1640 containing 11.1 mM glucose and 10% heat-inactivated FBS with 1X penicillin/streptomycin prior to in vitro assay for insulin secretion and PGE2 production.
Mouse Islet Insulin Secretion and PGE2 Production Assays. Insulin secretion assays were performed in mesh-bottomed glass tubes essentially as in Rabaglia et al. (2005). Modifications include: 4 islets/replicate were picked into Krebs Ringer Bicarbonate Buffer (KRBB) containing 1.7 mM glucose and 0.25% BSA. Replicates were pre-incubated for 1 hour in fresh 1.7 mM KRBB before being transferred to stimulation medium containing the desired concentrations of glucose and drug treatment (e.g., PGE1, PGE2, and sulprostone [Sigma Aldrich] or L-798,106 [Tocris]). Insulin secretion as a percentage of total insulin content was determined using an in-house insulin ELISA, as described above.
As a first step in testing their hypothesis that the EP3 signaling pathway contributes to the pathophysiology of T2D, the Inventors subjected islets isolated from 10-week-old BTBR lean and Ob mice to treatment with a selective agonist (PGE1) or specific antagonist (L-798,106) of the EP3 receptor to monitor the impact on GSIS. Briefly, mouse islets were incubated in medium containing 1.7 mM glucose (non-stimulatory towards insulin secretion) or 16.7 mM glucose (stimulatory towards insulin secretion), with and without the addition of 5 μM PGE1 or 20 μM L-798,106.
GLP-1-based therapies are used in T2D therapy. To test the possibility that EP3 antagonism can augment the effect of GLP-1 agonism, islets from diabetic BTBR mice were treated with stimulatory glucose, with and without the addition of 50 nM GLP-1 and/or 10 μM […], and the level of insulin secretion monitored (FIG. 9).

[4] = diabetic patients treated with sitagliptin; cited from earlier work

Compound: COc1ccc(Br)cc1S(=O)(=O)NC(=O)/C=C/c1ccccc1Cc1ccc2ccccc2c1 [L-798,106, (2E)-N-[(5-bromo-2-methoxyphenyl)sulfonyl]-3-[2-(2-naphthalenylmethyl)phenyl]-2-propenamide]
- effect on insulin secretion from diabetic (T2D) human islets ([1]; T2D donor islets, 16.7 mM glucose, L-798,106 20 μM / 10 μM, 45 minute static incubation): can enhance insulin secretion; also recorded: differed significantly from responses of non-diabetic islets
- effect on insulin secretion from non-diabetic human islets ([1]; non-diabetic donors 5-7, cultured in 8 mM glucose, 16.7 mM glucose stimulation, 45 minute static incubation): non-responsive
- effect on insulin secretion from xylitol-incubated non-diabetic human islets ([1]; non-diabetic donors 5-7 incubated overnight in 8 mM glucose with 0.5 mM xylitol, 16.7 mM glucose stimulation, 45 minutes): effective to promote glucose dependent insulin secretion; also recorded: differed significantly from responses of non-diabetic islets
- EC50 ([2]; Rattus norvegicus, INS1, in the presence of 50 nM PGE2 (maximal inhibitory concentration), 16.7 mM glucose, 2 hour static incubation, read-out: approximate EC50 for restoring insulin secretion): ~100 nM
- reversal of sulprostone-dependent suppression of GSIS ([2]; in the presence of 10 nM sulprostone, stimulatory glucose, dose response of L-798,106): reversed in a dose-dependent manner
- reversal of PGE2-dependent suppression of insulin secretion ([2]; in the presence of 50 nM PGE2, increasing concentrations of L-798,106, 16.7 mM glucose): restored maximal insulin secretion; also recorded: reversed in a dose-dependent manner
- effect on GSIS from islets obtained from diabetic BTBR mice [3]: significantly altered insulin secretion; also recorded: enhanced GSIS
- effect on GLP-1 dependent insulin secretion from diabetic BTBR islets ([3]; diabetic BTBR-ob/ob islets, 11.1 mM glucose, GLP-1 50 nM plus L-798,106 10 μM): augments GLP-1 dependent insulin secretion
- effect on GSIS from islets obtained from non-diabetic mice [3]: had no effect on GSIS

Compound: CCCCC[C@H](O)/C=C/[C@H]1[C@H](O)CC(=O)[C@@H]1CCCCCCC(=O)O [PGE1]
- effect on GSIS from islets obtained from diabetic BTBR mice [3]: significantly altered insulin secretion; also recorded: reduced GSIS
- effect on GSIS from islets obtained from non-diabetic mice [3]: had no effect

Compound: CCCCC[C@H](O)/C=C/[C@H]1[C@H](O)CC(=O)[C@@H]1C/C=C\CCCC(=O)O [PGE2]
- IC50 ([2]; 16.7 mM glucose, 2 hour static incubation, read-out: approximate IC50 for suppression of insulin secretion): ~10 nM
- minimum dose yielding maximum effect on GSIS inhibition ([2]; 16.7 mM glucose): approximately 50 nM
- maximal reduction in insulin secretion ([2]; 16.7 mM glucose, increasing concentrations, 2 hour static incubation): ~80%
- inhibition of GSIS (dose dependence) ([2]; 16.7 mM glucose, wide concentration range): dose-dependently suppresses insulin secretion; also recorded: dose-dependently inhibited GSIS

Compound: N[C@@H](CC(=O)N1CCn2c(nnc2C(F)(F)F)C1)Cc1cc(F)c(F)cc1F [sitagliptin]
- diabetic patients who fail to achieve HbAlc target of <7% [4]: 35-60%

Compound: CS(=O)(=O)NC(=O)CCC/C=C\C[C@H]1C(=O)C[C@@H](O)[C@@H]1/C=C/[C@@H](O)COc1ccccc1 [sulprostone]
- minimum dose yielding maximum effect on GSIS inhibition ([2]; 16.7 mM glucose): approximately 10 nM

Compound: glucagon-like peptide 1 (HAEGTFTSDVSSYLEGQAAKEFIAWLVKGR; ends and bridges not checked; UniProt P01275 98-127, looked up) [GLP-1, hormone glucagon-like peptide 1]
- effect of GLP-1 alone on insulin secretion from diabetic BTBR islets ([3]; diabetic BTBR islets, 11.1 mM glucose, GLP-1 50 nM): significant impact on insulin secretion
